Reference: patent US20110269790A1, “NOVEL THIENOPYRIDINES AS PHARMACOLOGICALLY ACTIVE AGENTS” (priority 2009, published 2011)
≈ marks a conversion by molar mass, not a printed value. Like-named read-outs stand apart in the source and are kept apart here.

Experiments:
[1] = system: A431 (Skin cancer) cell lines; test: MTT assay, A431; format: cell-based; conditions: Homo sapiens, read-out: A431 cell lines IC50
Experimental: (§1) A431 (Skin cancer), Colo-205 (Colon cancer), A549 (Lung cancer) cell lines were obtained from National Center for Cell science (NCCS), Pune, India. DMEM (Dulbeccos Modified Eagles Medium), MTT [3-(4,5-dimethylthiazol-2-yl)-2,5-diphenyl tetrazolium bromide], Trypsin, EDTA were purchased from Sigma Chemicals Co (St. Louis, Mo.), Fetal bovine serum were purchased from Arrow labs, 96 well flat bottom tissue culture plates were purchased from Tarson.
(§2) A431, Colo-205, A549 cell lines were grown as adherent cells in DMEM media supplemented with 10% fetal bovine serum, 100 μg/ml penicillin, 200 μg/ml streptomycin, 2 mM L-glutamine, and culture was maintained in a humidified atmosphere with 5% CO2. Stock solution of 10 mg/ml was prepared for test molecules in DMSO. From the stock, various dilutions were made with sterile water to get required concentration. A431, Colo-205, A549 cell lines were seeded at a density of 1×10^4 cells (cell number was determined by Trypan blue exclusion dye method) per each well in 100 μl of DMEM supplemented with 10% FBS. 12 hrs after seeding, above media was replaced with fresh DMEM supplemented with 10% FBS. Then, 10 μl sample from above stock solutions were added to each well in triplicates which gives final concentration of 100, 50, 25, 10 μg/well. The above cells were incubated for 48 hrs at 37° C. with 5% CO2. After 48 hrs incubation the above media was replaced with 100 μl of fresh DMEM with out FBS and to this 10 μl of MTT (5 mg dissolved in 1 ml of PBS) was added and incubated for 3 hrs at 37° C. with 5% CO2. After 3 hrs of incubation, the above media was removed with multi channel pipette, then 200 μl of DMSO was added to each well and incubated at 37° C. for 15 min. Finally, the plate was read at 570 nm using spectrophotometer (Spectra Max, Molecular devices).

Colo-205 (Colon cancer) = test: MTT assay, Colo-205; format: cell-based; conditions: for IC50: Homo sapiens, read-out: Colo-205 IC50
Experimental: as §1, §2

A549 (Lung cancer) = test: MTT assay, A549; format: cell-based; conditions: Homo sapiens, read-out: A549 IC50
Experimental: as §1, §2

mice = test: Adenosine mediated bronchoconstriction and lung inflammation in an allergic mouse model; format: in vivo; parameters: Total count: unit not given here; conditions: BAL fluid cells; 100 mg/kg oral
Experimental: Thienopyridines were proven as potent cytotoxic and anti-inflammatory agents in the previous experimental results. In cytotoxic MTT assay, activity of these molecules may be due to the involvement of adenosine receptors. Further, to find the bronchodilatory activity of these moieties and to find the involvement of adenosine receptors in their action, non-invasive and invasive adenosine mediated bronchoconstriction and lung inflammation in an allergic mouse model was performed.
Male mice, 6-8 weeks of age, free of specific pathogens were obtained from National Institute of Nutrition. The animals were maintained on a ragweed-free diet. All experimental protocols used in this study were under a protocol approved by animal ethical committee. Sensitization was performed according to the modified procedure described by Fan et al, 2002. Mice were sensitized on days 1 and 6 with i.p. injections of ragweed allergen (200 μg/200 μl of water for injection). Non-sensitized control animals received only water for injection with the same volumes. Ten days after sensitization, the mice were placed in plexiglas chamber and challenged with 0.5% ragweed or with 0.9% saline as a control for twenty minutes both in the morning and evening for three days. Then mice were divided into different groups consisting of six animals each. The groups including a control without sensitization; a sensitized group and a standard group along with groups of the test molecules were separated. Twenty-four hours after last challenge with ragweed, the mice were given an oral dose of test molecules and theophylline (100 mg/kg body weight) as acacia suspension. Two hours after administration of the oral dose, the mice were challenged with adenosine solution (24 mg/ml). The variation in respiration was recorded after anaesthetizing them with pentobarbitone sodium (0.1 ml 200 mg/ml ip) using kymograph. Then, mice were sacrificed and trachea was cannulated to collect the bronchoalveolar lavage fluid. This was performed by pumping 1 ml phosphate buffered saline into lungs through tracheal cannula and collecting the sample. Analysis of BAL fluid was performed to get the cellular differentials. The BAL fluid was centrifugated at 1500 rpm for six minutes at room temparature. After removing the supernatant, BAL cells were resuspended in 1 ml of phosphate buffered saline. Total cells were then counted manually in a hemocytometer chamber. A differential count of at least 300 cells was made according to the standard morphologic criteria and results were mentioned in table.

yeast α-glucosidase = biological target: T1, yeast α-glucosidase (Saccharomyces cerevisiae, UniProt P53341); test: In-vitro yeast α-glucosidase inhibition assay; format: biochemical, bakers yeast; conditions: for inhibition at 39.063 µg/mL / inhibition at 78.125 µg/mL / inhibition at 156.25 µg/mL / inhibition at 312.5 µg/mL / inhibition at 625 µg/mL / inhibition at 1250 µg/mL / inhibition at 2500 µg/mL / inhibition at 5000 µg/mL: yeast α-glucosidase, read-out: % Inhibition (Mean ± S.E); for inhibition at 39.063 µg/mL: 0.039063 mg/ml; for inhibition at 78.125 µg/mL: 0.078125 mg/ml; for inhibition at 156.25 µg/mL: 0.15625 mg/ml; for inhibition at 312.5 µg/mL: 0.3125 mg/ml; for inhibition at 625 µg/mL: 0.625 mg/ml; for inhibition at 1250 µg/mL: 1.25 mg/ml; for inhibition at 2500 µg/mL: 2.5 mg/ml; for inhibition at 5000 µg/mL: 5 mg/ml
T1 construct: α-Glucosidase [(EC 3.2.1.20) Type I: from bakers yeast]
T1 sequence (P53341 whole entry): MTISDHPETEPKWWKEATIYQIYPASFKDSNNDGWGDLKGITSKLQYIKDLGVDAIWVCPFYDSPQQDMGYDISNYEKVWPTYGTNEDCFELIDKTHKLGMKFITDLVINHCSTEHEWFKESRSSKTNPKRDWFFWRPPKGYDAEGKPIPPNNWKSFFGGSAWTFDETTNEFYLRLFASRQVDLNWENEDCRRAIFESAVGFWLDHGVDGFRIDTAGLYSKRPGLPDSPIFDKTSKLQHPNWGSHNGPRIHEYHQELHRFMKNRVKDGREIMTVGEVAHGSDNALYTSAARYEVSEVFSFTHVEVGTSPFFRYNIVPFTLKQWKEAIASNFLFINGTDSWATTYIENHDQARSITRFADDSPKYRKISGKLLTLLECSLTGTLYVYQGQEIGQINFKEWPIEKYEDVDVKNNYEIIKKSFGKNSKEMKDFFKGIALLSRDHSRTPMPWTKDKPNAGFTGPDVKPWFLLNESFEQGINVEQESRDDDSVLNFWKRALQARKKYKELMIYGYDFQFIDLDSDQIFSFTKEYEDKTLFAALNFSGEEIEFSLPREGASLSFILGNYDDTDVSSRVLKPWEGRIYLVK
Excerpt: Chemicals: α-Glucosidase [(EC 3.2.1.20) Type I: from bakers yeast], rat intestinal acetone powder (as a source of crude intestinal α-glucosidase), α-amylase [EC 3.2.1.1) Type VI B: from porcine pancreas], p-nitrophenyl α-D-glucopyranoside, 3,5-dinitro salicylic acid, soluble potato starch and 1-deoxyrojirimycine, were purchased from Sigma Chemical Co., St Louis, Mo., USA. Other chemicals of analytical grade were procured from indigenous manufacturers.
In-vitro a-Glucosidase Inhibition Assay: Yeast and intestinal a-glucosidase inhibitory activities were determined as per reported methods (Babu et al., 2004; Mc Dougall et al., 2005). Rat intestinal acetone powder in normal saline (100% w/v) was sonicated properly and the supernatant was used as a source of crude intestinal a-glucosidase after centrifugation. In brief, 20 μl, of test samples (100 mg/ml DMSO solution) were reconstituted in 100 μl of 100 mM-Phosphate buffer (pH 6.8) in a 96-well microplate and incubated with 50 μl yeast a-glucosidase (0.76 μ/ml in same buffer) or crude intestinal a-glucosidase for 5 min before 50-μl substrate (5 mM, […] prepared in same buffer) was added. Release of p-nitrophenyol was measured at 405 nm spectrophotometrically (Spectra Mas Plus 384, Molecular Device corporation, Sunnyvale, Calif., USA) 5 min after incubation with substrate, individual blank for test samples were prepared to correct background absorbance where the substrate was replaced with 50 μl of buffer. The control sample contained 20 μl DMSO in place of test samples. The percentage of enzyme inhibition was calculated as (A−B/A)×100 where A is represents the absorbance of the control without test samples, and B represents the absorbance in the presence of test samples. […] The IC50 values were calculated by applying logarithmic regression analysis from the mean inhibitory values.

| melting point [°C] | SMILES | IC50 ([1]; A-431, MTT, 48 hrs) [µg/mL] | IC50 (Colo-205 (Colon cancer); COLO 205, MTT, 48 hrs) [µg/mL] | IC50 (A549 (Lung cancer); A549, MTT, 48 hrs) [µg/mL] | Differential count (%) Eosinophils (mice) [%] | Differential count (%) Lymphocytes (mice) [%] | Differential count (%) Monocytes (mice) [%] | Total count (mice) | Yeast α-glucosidase enzyme inhibitory activity (in words) (yeast α-glucosidase) | other results |
| --- | --- | --- | --- | --- | --- | --- | --- | --- | --- | --- |
| 231 | Cc1sc2nc3c(c(N)c2c1C)CCC3 [BN-1, 2,3-dimethyl-6,7-dihydro-5H-cyclopenta[b]thieno[3,2-e]pyridin-4-amine] | 45.7 (≈ 209 µM) | 245 (≈ 1120 µM) | 190 (≈ 870 µM) | 12 | 65 | 20 | 12 | – | – |
| – | Cc1sc2nc3c(c(N)c2c1C)CCCCC3 [BN-4, 2,3-dimethyl-6,7,8,9-tetrahydro-5H-cyclohepta[b]thieno[3,2-e]pyridin-4-amine] | 47.8 (≈ 194 µM) | – | 36.3 (≈ 147 µM) | – | 80 | 20 | 9 | – | Colo-205 IC50 (Colo-205 (Colon cancer); MTT, 48 hrs): No activity |
| 221 | Nc1c2c(nc3sc4c(c13)CCCC4)CCC2 [BN-5, 2,3,6,7,8,9-Hexahydro-1H-benzo[4,5]thieno[2,3-b]cyclopenta[e]pyridin-10-amine] | 141 (≈ 577 µM) | – | 144 (≈ 591 µM) | – | – | – | – | moderate inhibitory activity | Colo-205 IC50 (Colo-205 (Colon cancer); MTT, 48 hrs): No activity |
| – | Nc1c2c(nc3sc4c(c13)CCCC4)CCCC2 [BN-6, 1,2,3,4,7,8,9,10-Octahydrobenzo[4,5]thieno[2,3-b]quinolin-11-amine] | 36.3 (≈ 140 µM) | 162 (≈ 627 µM) | 33.8 (≈ 131 µM) | 15 | 75 | 10 | 10.5 | moderate inhibitory activity | – |
| – | CC1CCc2c(nc3sc4c(c3c2N)CCCC4)C1 (centres unmarked) [BN-7, 8-Methyl-1,2,3,4,7,8,9,10-octahydrobenzo[4,5]thieno[2,3-b]quinolin-11-amine] | 36.3 (≈ 133 µM) | 70.7 (≈ 260 µM) | 49 (≈ 180 µM) | 20 | 70 | 10 | 7 | – | – |
| – | Nc1c2c(nc3sc4c(c13)CCCC4)CCCCC2 [BN-8, 2,3,4,7,8,9,10,11-Octahydro-1H-benzo[4,5]thieno[2,3-b]cyclohepta [e]pyridin-12-amine] | – | – | – | 20 | 70 | 10 | 14 | – | IC50 ([1]; A-431, 48 h): 51.1 µg/mL (≈ 188 µM); IC50 (Colo-205 (Colon cancer); COLO 205, 48 h): 70.8 µg/mL (≈ 260 µM); IC50 (A549 (Lung cancer); A549, 48 h): 186 µg/mL (≈ 683 µM) |
| – | Nc1c2c(nc3sc4c(c13)CCC4)CCCC2 [BN-14, 2,3,6,7,8,9-Hexahydro-1H-cyclopenta[4,5]thieno[2,3-b]quinolin-10-amine] | 99.3 (≈ 406 µM) | 223 (≈ 913 µM) | 79.4 (≈ 325 µM) | 15 | 80 | 13.5 | 13.5 | strong significant inhibitory activity | inhibition at 39.063 µg/mL (yeast α-glucosidase): 19.6%; inhibition at 78.125 µg/mL (yeast α-glucosidase): 25.84 ± 0.13%; inhibition at 156.25 µg/mL (yeast α-glucosidase): 33.31 ± 0.04%; inhibition at 312.5 µg/mL (yeast α-glucosidase): 42.8 ± 1.38%; inhibition at 625 µg/mL (yeast α-glucosidase): 50.3 ± 3.39%; inhibition at 1250 µg/mL (yeast α-glucosidase): 63.8 ± 1.71%; inhibition at 2500 µg/mL (yeast α-glucosidase): 67.8 ± 1.18%; inhibition at 5000 µg/mL (yeast α-glucosidase): 72.2 ± 1.87% |
| 263.2 | CC1CCc2c(nc3sc4c(c3c2N)CCC4)C1 (centres unmarked) [BN-15, 7-Methyl-2,3,6,7,8,9-hexahydro-1H-cyclopenta[4,5]thieno[2,3-b]quinolin-10-amine] | 40.7 (≈ 158 µM) | – | 72.4 (≈ 280 µM) | 10 | 63.5 | 16.5 | 13 | moderate inhibitory activity | Colo-205 IC50 (Colo-205 (Colon cancer); MTT, 48 hrs): No activity |
| – | Nc1c2c(nc3sc4c(c13)CCC4)CCCCC2 [BN-16, 1,2,3,6,7,8,9,10-Octahydrocyclohepta[b]cyclopenta[4,5]thieno[3,2-e]pyridine-11-amine] | 63 (≈ 244 µM) | 123 (≈ 476 µM) | 39.8 (≈ 154 µM) | 12 | 90 | 15 | 8 | – | – |

| SMILES | melting point [°C] | IC50 ([1]; A-431, MTT, 48 hrs) [µg/mL] | IC50 (Colo-205 (Colon cancer); COLO 205, MTT, 48 hrs) [µg/mL] | IC50 (A549 (Lung cancer); A549, MTT, 48 hrs) [µg/mL] | Differential count (%) Eosinophils (mice) [%] | Differential count (%) Lymphocytes (mice) [%] | Differential count (%) Monocytes (mice) [%] | Total count (mice) | Yeast α-glucosidase enzyme inhibitory activity (in words) (yeast α-glucosidase) | other results |
| --- | --- | --- | --- | --- | --- | --- | --- | --- | --- | --- |
| Cc1sc2nc3c(c(N)c2c1C)CCCC3 [BN-2, 2,3-dimethyl-5,6,7,8-tetrahydrothieno[2,3-b]quinolin-4-amine] | 210 | 31.6 (≈ 136 µM) | 117 (≈ 504 µM) | 50.1 (≈ 216 µM) | – | – | – | – | strong significant inhibitory activity | inhibition at 39.063 µg/mL (yeast α-glucosidase): 15.3 ± 2.69%; inhibition at 78.125 µg/mL (yeast α-glucosidase): 20.1 ± 1.37%; inhibition at 156.25 µg/mL (yeast α-glucosidase): 25.9 ± 0.44%; inhibition at 312.5 µg/mL (yeast α-glucosidase): 33.4 ± 0.76%; inhibition at 625 µg/mL (yeast α-glucosidase): 39.2 ± 0.87%; inhibition at 1250 µg/mL (yeast α-glucosidase): 43.9 ± 1.92%; inhibition at 2500 µg/mL (yeast α-glucosidase): 53 ± 1.13%; inhibition at 5000 µg/mL (yeast α-glucosidase): 56.54 ± 0.28% |
| Nc1c2c(nc3sc4c(c13)CCC4)CCC2 [BN-13, 1,2,3,6,7,8-hexahydrocyclopenta [b]cyclopenta[4,5] thieno[3,2-e]pyridin-9-amine] | 245 | – | – | – | 20 | 74 | 16.5 | 8 | moderate inhibitory activity | IC50 ([1]; A-431, 48 h): 50.1 µg/mL (≈ 218 µM); IC50 (Colo-205 (Colon cancer); COLO 205, 48 h): 144 µg/mL (≈ 625 µM); IC50 (A549 (Lung cancer); A549, 48 h): 83.2 µg/mL (≈ 361 µM) |
